The record followed here is EPA's ToxValDB 9.5 (doi:10.2903/j.efsa.2020.6338).

Series [1] concerns Bovidae. Particulars: subchronic; duration: 42 days; oral; diet; M; no effects.
Series [2] relates to Gallus gallus. Particulars: subchronic; duration: 36 days; oral; diet; M; Chicken; no effects.
Series [3] deals with Sus scrofa. Particulars: subchronic; duration: 42 days; oral; diet; M/F; Not specified; no effects.

As for `Cc1csc(C(C)C)n1` [2-Isopropyl-4-methylthiazole], the LEL in series [1], in series [2] and in series [3] was 15 mg/kg-day each time.

With `COc1ccc2ccccc2c1` [2-Methoxynaphthalene], the LEL in series [1], in series [2] and in series [3] was 12 mg/kg-day throughout.

For the compound `OCCc1ccccc1` [2-Phenylethanol], the LEL in series [1], in series [2] and in series [3] was 125 mg/kg-day each time.

With `CC(=O)OCCC(C)C` [3-Methylbutyl acetate], the LEL in series [1], in series [2] and in series [3] was 1250 mg/kg-day in each case.

On to `CCCCCCC(=O)OCC` [Ethyl heptanoate], for which the LEL in series [1], in series [2] and in series [3] was 318 mg/kg-day in each case.

On to `C=CC(C)(O)CCC=C(C)C` (configuration not stated) [Linalool], for which the LEL in series [1], in series [2] and in series [3] was 300 mg/kg-day in each case.

As for `O=C1CCCCCCCCCCCCCCO1` [Pentadecan-15-olide], the LEL in series [1], in series [2] and in series [3] was 100 mg/kg-day in each case.

As for `CC(C)CC(=O)OCCc1ccccc1` [Phenethyl isovalerate], the LEL in series [1], in series [2] and in series [3] was 300 mg/kg-day in each case.

For `CC1CCC(C(C)(C)S)C(=O)C1` (configuration not stated) [p-Mentha-8-thiol-3-one], the LEL in series [1], in series [2] and in series [3] was 5 mg/kg-day throughout.
